Consider 24 compounds from ChEMBL document CHEMBL1144170, “Syntheses and structure-activity relationships of novel, potent, and selective trans-2-[3-oxospiro[isobenzofuran-1(3H),1'-cyclohexan]-4'-yl]benzimidazole NPY Y5 receptor antagonists” (Bioorg Med Chem Lett, 2008).

As a reminder, the solubility is the concentration that dissolves in the medium under given conditions. Broadly, the IC50 is the concentration needed to halve the response being measured.

Converted amounts (≈) assume the structure as drawn. Some results are limits rather than exact numbers.

A short description of data set [1]: Solubility in 0.2 M phosphate buffer at pH 6.8. In kind it is physicochemical.
The target in data set [2] is T1, Neuropeptide Y receptor type 5 (Homo sapiens, UniProt Q15761).
T1 sequence (Q15761 whole entry): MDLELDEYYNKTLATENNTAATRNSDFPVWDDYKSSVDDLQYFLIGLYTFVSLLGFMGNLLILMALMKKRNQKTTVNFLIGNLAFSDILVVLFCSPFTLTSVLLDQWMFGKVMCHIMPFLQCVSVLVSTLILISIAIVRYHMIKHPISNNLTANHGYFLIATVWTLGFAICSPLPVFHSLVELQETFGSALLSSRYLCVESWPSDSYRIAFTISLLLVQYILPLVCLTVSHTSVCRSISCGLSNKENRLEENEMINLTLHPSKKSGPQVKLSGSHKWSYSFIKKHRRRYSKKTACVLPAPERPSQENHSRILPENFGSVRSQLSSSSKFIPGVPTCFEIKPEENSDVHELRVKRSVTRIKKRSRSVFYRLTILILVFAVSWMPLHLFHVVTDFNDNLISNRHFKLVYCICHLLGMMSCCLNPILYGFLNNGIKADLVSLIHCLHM
The experiment in a line: Displacement of [125I]PYY from human recombinant NPYY5 receptor expressed in mouse LMtk cells. The data set is classed as cell-based. (In general: In a radioligand displacement assay an active substance lowers the binding of a labelled ligand.)

Data set [3] in a line: Ratio of drug level in brain to plasma in rat at 10 mg/kg, po after 2 hrs. The data set is classed as ADME, organism-based. Also noted: dose 10 mg/kg, route oral.
Data set [4] deals with Neuropeptide Y receptor type 4 (Homo sapiens, UniProt P50391). The experiment in a line: Inhibition of NPYY4 receptor.
Neuropeptide Y receptor type 4, sequence (P50391 whole entry): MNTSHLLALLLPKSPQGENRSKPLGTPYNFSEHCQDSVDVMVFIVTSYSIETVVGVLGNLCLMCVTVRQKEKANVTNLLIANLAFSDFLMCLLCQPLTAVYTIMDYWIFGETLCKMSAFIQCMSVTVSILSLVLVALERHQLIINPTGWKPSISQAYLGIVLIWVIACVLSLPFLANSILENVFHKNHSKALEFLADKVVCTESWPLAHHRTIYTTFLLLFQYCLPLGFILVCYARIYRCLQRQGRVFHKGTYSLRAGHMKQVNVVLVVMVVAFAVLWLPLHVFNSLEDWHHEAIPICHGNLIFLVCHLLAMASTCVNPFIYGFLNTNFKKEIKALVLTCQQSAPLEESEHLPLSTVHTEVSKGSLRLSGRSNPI
A short description of data set [5]: Plasma concentration in rat plasma at 10 mg/kg, po after 2 hrs. The data set is classed as ADME, organism-based. Particulars: read-out: Drug uptake. Also noted: dose 10 mg/kg, route oral.
In data set [6] the target is T1, Neuropeptide Y receptor type 5. Put plainly: Antagonist activity at human recombinant NPYY5 receptor expressed in mouse LMtk cells assessed as inhibition of NPY-induced calcium increase. The data set is classed as functional, cell-based.
Data set [7] addresses T2, Neuropeptide Y receptor type 1 (Homo sapiens, UniProt P25929).
T2 sequence (P25929 whole entry): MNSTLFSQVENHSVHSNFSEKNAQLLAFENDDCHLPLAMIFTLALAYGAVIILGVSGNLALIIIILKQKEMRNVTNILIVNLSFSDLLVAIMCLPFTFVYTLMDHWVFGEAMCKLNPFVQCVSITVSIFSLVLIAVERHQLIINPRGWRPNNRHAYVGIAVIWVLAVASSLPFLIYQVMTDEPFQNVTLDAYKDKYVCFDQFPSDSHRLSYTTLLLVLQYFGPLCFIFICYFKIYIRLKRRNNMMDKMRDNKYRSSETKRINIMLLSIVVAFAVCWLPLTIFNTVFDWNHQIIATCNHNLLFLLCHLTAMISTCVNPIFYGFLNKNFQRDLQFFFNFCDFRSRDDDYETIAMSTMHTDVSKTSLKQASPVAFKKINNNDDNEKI
Put plainly: Inhibition of NPYY1 receptor.

Data set [8] addresses T3, Neuropeptide Y receptor type 2 (Homo sapiens, UniProt P49146).
T3 sequence (P49146 whole entry): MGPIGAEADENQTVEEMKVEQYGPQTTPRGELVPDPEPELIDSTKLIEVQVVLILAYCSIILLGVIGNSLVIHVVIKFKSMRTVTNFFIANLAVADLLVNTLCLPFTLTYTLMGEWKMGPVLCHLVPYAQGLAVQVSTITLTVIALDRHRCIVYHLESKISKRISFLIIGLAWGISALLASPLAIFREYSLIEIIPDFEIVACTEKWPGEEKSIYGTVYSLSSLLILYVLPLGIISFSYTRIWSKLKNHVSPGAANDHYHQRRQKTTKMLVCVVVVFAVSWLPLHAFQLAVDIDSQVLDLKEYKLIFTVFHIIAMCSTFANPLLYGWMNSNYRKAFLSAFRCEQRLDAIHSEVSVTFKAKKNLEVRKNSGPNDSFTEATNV
The experiment in a line: Inhibition of NPYY2 receptor.

Data set [9] in a line: Plasma concentration in rat plasma at 10 mg/kg, po after 4 hrs. The data set is classed as ADME, organism-based. More on the design: dose 10 mg/kg, route oral. Particulars: read-out: Drug uptake.
A short description of data set [10]: Selectivity for human NPYY5 receptor over NPYY2 receptor.
Data set [11] in a line: Selectivity for human NPYY5 receptor over NPYY4 receptor.
Data set [12] in a line: Selectivity for human NPYY5 receptor over NPYY1 receptor.
Data set [13] in a line: Ratio of drug level in brain to plasma at 2.7 mg/kg, iv after 10 mins. In kind it is ADME, organism-based. More on the design: dose 2.7 mg/kg, route intravenous. Particulars: rat, read-out: BPR.
A further data set deals with Brain. Put plainly: Drug level in rat brain at 2.7 mg/kg, iv after 10 mins. More on the design: dose 2.7 mg/kg, route intravenous. In kind it is ADME, organism-based. The following applies: in vivo.
Data set [14] can be described thus: Plasma concentration in rat plasma at 2.7 mg/kg, iv after 10 mins. In kind it is ADME, organism-based. More on the design: dose 2.7 mg/kg, route intravenous. The following applies: read-out: Drug uptake.

In [1], `O=C1O[C@]2(CC[C@H](c3nc4cc(Cl)c(C(F)(F)F)cc4[nH]3)CC2)c2ccccc21` displayed a solubility of under 0.01 µg/mL. Further, the IC50 in [2] came out at 2.6 nM.

On to `O=C1O[C@]2(CC[C@H](c3nc4ccccc4[nH]3)CC2)c2ccccc21`, for which the IC50 in [2] was found to be 91 nM.

As for `O=C1O[C@]2(CC[C@H](c3nc4cc(-c5nnco5)ccc4[nH]3)CC2)c2ccccc21`, in [2], the IC50 came out at 15 nM.

As for `COC(=O)c1ccc2[nH]c([C@H]3CC[C@@]4(CC3)OC(=O)c3ccccc34)nc2c1Cl`, in [2], the IC50 is 4.5 nM.

Regarding `Cc1nnc(-c2ccc3[nH]c([C@H]4CC[C@]5(CC4)OC(=O)c4ccccc45)nc3c2)o1`, the IC50 in data set [2] stood at 1000 nM.

As to `Cc1nnc(-c2ccc3[nH]c([C@H]4CC[C@@]5(CC4)OC(=O)c4ccccc45)nc3c2)o1`, the Kp at 2 h in data set [3] was found to be 0.05. Also, the IC50 in [4] was over 10000 nM; in data set [2] it was 3.3 nM; in data set [6], 5.5 nM; in [7], over 10000 nM; in data set [8], over 10000 nM. Besides, the concentration at 2 h in data set [5] worked out at 1400 nM. Besides, the solubility in [1] is 0.94 µg/mL (≈ 2.35 µM). Moreover, the concentration at 4 h in data set [9] was found to be 850 nM. In addition, the Selectivity ratio in [10], in data set [11] and in [12] was 1000 in each case.

`O=C1O[C@]2(CC[C@H](c3nc4cc(-c5cccnc5)ccc4[nH]3)CC2)c2ccccc21`: the IC50 in data set [2] is 3.1 nM.

Consider `Cc1nc(-c2ccc3[nH]c([C@H]4CC[C@@]5(CC4)OC(=O)c4ccccc45)nc3c2)no1`, for which the IC50 in [4] is over 10000 nM; in data set [2] it was 5.1 nM; in [6] it was 7 nM; in [7], over 10000 nM; in data set [8] it was over 10000 nM. Besides, the concentration at 2 h in data set [5] stood at 400 nM. Besides, the Selectivity ratio in data set [10], in data set [11] and in data set [12] was 1000 throughout.

Consider `Cn1c2cc(Cl)c(Cl)cc2nc1[C@H]1CC[C@@]2(CC1)OC(=O)c1ccccc12`, for which, in data set [2], the IC50 is over 1000 nM.

For `COC(=O)c1ccc2[nH]c([C@H]3CC[C@@]4(CC3)OC(=O)c3ccccc34)nc2c1`, the solubility in data set [1] is 0.6 µg/mL (≈ 1.59 µM). In addition, the IC50 in data set [2] was 7.7 nM. Further, in [13], the Kp at 10 min was found to be 0.55. In the data set with Brain, this compound returned a Drug uptake of 1.7 nmol/g. In [14], the concentration at 10 min is 3100 nM.

In the case of `O=C1O[C@]2(CC[C@H](c3nc4cc(Br)ccc4[nH]3)CC2)c2ccccc21`, the IC50 in data set [2] is 45 nM.

On to `O=C1O[C@]2(CC[C@H](c3nc4cc(Cl)c(-c5ccccc5)cc4[nH]3)CC2)c2ccccc21`, for which the IC50 in [2] was determined as 2.2 nM.

Turning to `COC(=O)c1cc2[nH]c([C@H]3CC[C@]4(CC3)OC(=O)c3ccccc34)nc2cc1Cl`, the IC50 in data set [2] is 1000 nM.

`O=C1O[C@]2(CC[C@H](c3nc4ccc(-c5ccccc5)cc4[nH]3)CC2)c2ccccc21`: the IC50 in data set [2] turned out to be 2.3 nM.

Take `Cn1nnc(-c2ccc3[nH]c([C@H]4CC[C@@]5(CC4)OC(=O)c4ccccc45)nc3c2)n1`: the Kp at 2 h in [3] stood at 0.12. The IC50 in [4] is over 10000 nM; in data set [2] it was 5.9 nM; in data set [6], 7.2 nM; in [7], over 10000 nM; in [8] it was over 10000 nM. Besides, the concentration at 2 h in data set [5] was 3200 nM. The amount in solution in [1] (solubility) came to 5.9 µg/mL (≈ 14.7 µM). The concentration at 4 h in data set [9] turned out to be 990 nM. Further, the Selectivity ratio in data set [10], in data set [11] and in data set [12] was 1000 throughout.

For `O=C1O[C@]2(CC[C@H](c3nc4ccc(-c5ccc(F)cc5)cc4[nH]3)CC2)c2ccccc21`, the IC50 in data set [2] is 1.7 nM.

With `O=C1O[C@]2(CC[C@H](c3nc4cc(C(F)(F)F)ccc4[nH]3)CC2)c2ccccc21`, the IC50 in data set [2] stood at 47 nM.

With `O=C1O[C@]2(CC[C@H](c3nc4cc(Cl)ccc4[nH]3)CC2)c2ccccc21`, the IC50 in [2] came to 39 nM.

As for `N#Cc1ccc2[nH]c([C@H]3CC[C@@]4(CC3)OC(=O)c3ccccc34)nc2c1`, the IC50 in data set [2] is 20 nM.

As for `O=C1O[C@]2(CC[C@H](c3nc4cc(-c5ccccn5)ccc4[nH]3)CC2)c2ccccc21`, the IC50 in [2] is 2.4 nM.

Consider `COC(=O)c1cc2[nH]c([C@H]3CC[C@@]4(CC3)OC(=O)c3ccccc34)nc2cc1Cl`, for which, in data set [2], the IC50 stood at 2.2 nM.

For the compound `O=C1O[C@]2(CC[C@H](c3nc4cc(-c5noc(C(F)(F)F)n5)ccc4[nH]3)CC2)c2ccccc21`, the IC50 in data set [2] was determined as 2.1 nM.

For the compound `O=C(c1ccccc1)c1ccc2[nH]c([C@H]3CC[C@@]4(CC3)OC(=O)c3ccccc34)nc2c1`, in data set [2], the IC50 worked out at 2.4 nM.

`O=C1O[C@]2(CC[C@H](c3nc4cc(Cl)c(Cl)cc4[nH]3)CC2)c2ccccc21`: in data set [2], the IC50 stood at 8 nM.
